Source: patent US8148422B2, “Sulfonamides as TRPM8 modulators” (Janssen Pharmaceutica, NV, priority 2008, dated 2012)
pIC50: −log10 of the molar value.

Molecular target: T1, canine TRPM8 (Canis lupus familiaris, UniProt Q1A7N1)
T1 construct: expressed in transfected cells
Experiment: In vitro canine TRPM8 functional assay (Ca2+-sensitive fluorescent dye, FLIPR or FDSS, icilin challenge)
Format: cell-based
Conditions: HEK293 cells stably expressing canine TRPM8; for inhibition at 0.2 µM: 0.2 μM compound, icilin challenge; for pIC50: icilin at approx. 80% maximal response, eight-point dose-response, single determinations unless otherwise noted, read-out: IC50
Description: The functional activity of compounds of the formula (I) was determined by measuring changes in intracellular calcium concentration using a Ca^2+-sensitive fluorescent dye. The changes in fluorescent signal were monitored by a fluorescence plate reader, either a FLIPR™ (Molecular Devices) or FDSS (Hamamatsu).
At 24 hrs prior to assay, HEK293 cells stably expressing canine TRPM8 were seeded in culture medium in black wall, clear-base poly-D-lysine coated 384-well plates (BD Biosciences, NJ, USA) and grown overnight in 5% CO2 at 37° C. On assay day, growth media was removed and cells were loaded with Calcium 3 Dye (Molecular Devices) for 35 min at 37° C., under 5% CO2 and then for 25 min at room temperature and atmosphere. Subsequently, cells were tested for agonist-induced increases in intracellular Ca^2+ levels using FLIPR™ or FDSS. Cells were challenged with a compound of the Formula (I) (at varying concentrations) and intracellular Ca^2+ was measured for 5 min prior to the addition of icilin to all wells to achieve a final concentration that produces approximately an 80% maximal response. EC50 or IC50 values for compounds of the present invention were determined from eight-point dose-response studies. Curves were generated using the average of quadruplicate wells for each data point.

T1 sequence (Q1A7N1 1-1104): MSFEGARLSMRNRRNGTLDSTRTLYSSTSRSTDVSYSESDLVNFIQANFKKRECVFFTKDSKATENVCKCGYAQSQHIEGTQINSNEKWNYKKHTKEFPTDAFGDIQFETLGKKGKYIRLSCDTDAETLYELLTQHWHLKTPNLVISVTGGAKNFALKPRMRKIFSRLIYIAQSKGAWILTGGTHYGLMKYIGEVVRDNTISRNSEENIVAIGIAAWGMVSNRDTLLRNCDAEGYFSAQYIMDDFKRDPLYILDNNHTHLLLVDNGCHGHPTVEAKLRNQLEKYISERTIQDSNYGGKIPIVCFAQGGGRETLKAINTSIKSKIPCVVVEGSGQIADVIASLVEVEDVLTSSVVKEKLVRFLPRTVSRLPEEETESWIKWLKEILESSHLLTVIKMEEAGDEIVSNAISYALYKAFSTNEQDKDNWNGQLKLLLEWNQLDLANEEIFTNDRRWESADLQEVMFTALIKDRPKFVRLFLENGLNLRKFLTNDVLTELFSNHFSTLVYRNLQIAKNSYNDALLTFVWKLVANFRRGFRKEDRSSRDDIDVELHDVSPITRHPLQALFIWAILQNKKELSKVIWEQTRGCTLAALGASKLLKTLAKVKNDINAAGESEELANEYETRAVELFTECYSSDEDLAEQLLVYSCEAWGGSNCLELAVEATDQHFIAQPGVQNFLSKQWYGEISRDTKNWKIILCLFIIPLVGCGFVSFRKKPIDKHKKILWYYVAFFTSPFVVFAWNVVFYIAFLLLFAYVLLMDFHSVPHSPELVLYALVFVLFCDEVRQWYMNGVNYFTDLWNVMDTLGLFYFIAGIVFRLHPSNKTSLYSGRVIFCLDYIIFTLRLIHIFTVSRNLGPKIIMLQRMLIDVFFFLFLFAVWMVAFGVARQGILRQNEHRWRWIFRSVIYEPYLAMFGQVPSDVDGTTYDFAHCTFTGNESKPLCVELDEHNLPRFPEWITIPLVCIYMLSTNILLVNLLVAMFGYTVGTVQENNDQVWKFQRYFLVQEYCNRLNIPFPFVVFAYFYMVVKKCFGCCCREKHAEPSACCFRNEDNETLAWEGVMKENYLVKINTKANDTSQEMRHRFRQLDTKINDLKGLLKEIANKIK

| inhibition at 0.2 µM | pIC50 | Compound |
| --- | --- | --- |
| 96% | 7.37 | CCCCN(C)CCS(=O)(=O)N(Cc1ccc(OC(F)(F)F)cc1)c1sc2ccccc2c1C [Cpd 12, N-(3-Methylbenzo[b]thiophen-2-yl)-N-(4-trifluoromethoxy-benzyl)-2-(methyl-butylamino)ethylsulfonamide] |
| 98% | 7.66 | Cc1c(N(Cc2ccc(OC(F)(F)F)cc2)S(=O)(=O)CCN(C)CCc2ccccc2)sc2ccccc12 [Cpd 17, N-(3-Methylbenzo[b]thiophen-2-yl)-N-(4-trifluoromethoxy-benzyl)-2-(methyl-2-phenylethylamino)ethylsulfonamide] |
| 101% | 8.40 | Cc1c(N(Cc2ccc(OC(F)(F)F)cc2)S(=O)(=O)CCN2CC(F)(F)C2)sc2ccccc12 [Cpd 46, N-(3-Methylbenzo[b]thiophen-2-yl)-N-(4-trifluoromethoxy-benzyl)-2-(3,3-ditluoroazetidin-1-yl)ethylsulfonamide] |
| 98% | 7.54 | Cc1c(N(Cc2ccc(OC(F)(F)F)cc2)S(=O)(=O)CCN(C)CCO)sc2ccccc12 [Cpd 10, N-(3-Methylbenzo[b]thiophen-2-yl)-N-(4-trifluoromethoxy-benzyl)-2-(methyl-2-hydroxyethylamino)ethylsulfonamide] |
| 100% | 7.66 | CCCCN(CCCC)CCS(=O)(=O)N(Cc1ccc(OC(F)(F)F)cc1)c1sc2ccccc2c1C [Cpd 15, N-(3-Methylbenzo[b]thiophen-2-yl)-N-(4-trifluoromethoxy-benzyl)-2-(dibutylamino)ethylsulfonamide] |
| 100% | 7.70 | Cc1c(N(Cc2ccc(OC(F)(F)F)cc2)S(=O)(=O)CCN2CCCC2C)sc2ccccc12 (stereo not shown) [Cpd 37, N-(3-Methylbenzo[b]thiophen-2-yl)-N-(4-trifluoromethoxy-benzyl)-2-(2-methylpyrrolidin-1-yl)ethylsulfonamide] |
| 94% | 7.25 | Cc1c(N(Cc2ccc(OC(F)(F)F)cc2)S(=O)(=O)CCN2CCCC2)sc2ccccc12 [Cpd 36, N-(3-Methylbenzo[b]thiophen-2-yl)-N-(4-trifluoromethoxy-benzyl)-2-(pyrrolidin-1-yl)ethylsulfonamide] |
| 65% | – | Cc1c(N(Cc2ccc(OC(F)(F)F)cc2)S(=O)(=O)CCN(C)C)sc2ccccc12 [Cpd 49, N-(3-Methylbenzo[b]thiophen-2-yl)-N-(4-trifluoromethoxy-benzyl)-2-(dimethylamino)ethylsulfonamide] |
| 80% | 6.95 | Cc1c(N(Cc2ccc(OC(F)(F)F)cc2)S(=O)(=O)CCN2CCC2)sc2ccccc12 [Cpd 39, N-(3-Methylbenzo[b]thiophen-2-yl)-N-(4-trifluoromethoxy-benzyl)-2-(azetidin-1-yl)ethylsulfonamide] |
| 83% | 7.29 | CCOC(=O)CNCCS(=O)(=O)N(Cc1ccc(OC(F)(F)F)cc1)c1sc2ccccc2c1C [Cpd 47, N-(3-Methylbenzo[b]thiophen-2-yl)-N-(4-trifluoromethoxy-benzyl)-2-[(carboethoxymethyl)amino]ethylsulfonamide] |
| 99% | 8.05 | CCCN(CCC)CCS(=O)(=O)N(Cc1ccc(OC(F)(F)F)cc1)c1sc2ccccc2c1C [Cpd 6, N-(3-Methylbenzo[b]thiophen-2-yl)-N-(4-trifluoromethoxy-benzyl)-2-(di-propylamino)ethylsulfonamide] |
| 23% | – | Cc1c(N(Cc2ccc(OC(F)(F)F)cc2)S(=O)(=O)CCN2CCNCC2)sc2ccccc12 [Cpd 26, N-(3-Methylbenzo[b]thiophen-2-yl)-N-(4-trifluoromethoxy-benzyl)-2-(piperazin-1-yl)ethylsulfonamide] |

Further lines, the molecule ahead of its results:

| Compound | inhibition at 0.2 µM | pIC50 |
| --- | --- | --- |
| Cc1c(N(Cc2ccc(OC(F)(F)F)cc2)S(=O)(=O)CCN2CCS(=O)(=O)CC2)sc2ccccc12 [Cpd 35, N-(3-Methylbenzo[b]thiophen-2-yl)-N-(4-trifluoromethoxy-benzyl)-2-(1,1-dioxothiomorpholin-4-yl)ethylsulfonamide] | 97% | 7.52 |
| O=S(=O)(CCN1CCCCC1)N(Cc1ccc(OC(F)(F)F)cc1)c1sc2ccccc2c1Br [Cpd 64, N-(3-Bromobenzo[b]thiophen-2-yl)-N-(4-trifluoromethoxy-benzyl)-2-(N-piperidinyl)ethylsulfonamide] | 101% | 7.57 |
| CCCCN(CCCC)CCS(=O)(=O)N(Cc1ccc(OC(F)(F)F)cc1)c1ccc2ccccc2c1 [Cpd 56, N-(Naphth-2-yl)-N-(4-trifluoromethoxy-benzyl)-2-(dibutylamino)ethylsulfonamide] | 47% | – |
| CN(CCS(=O)(=O)N(Cc1ccc(OC(F)(F)F)cc1)c1ccc2ccccc2c1)Cc1ccccc1 [Cpd 57, N-(Naphth-2-yl)-N-(4-trifluoromethoxy-benzyl)-2-(benzyl-methylamino)ethylsulfonamide] | 89% | 7.28 |
| CC(=O)N1CCN(CCS(=O)(=O)N(Cc2ccc(OC(F)(F)F)cc2)c2sc3ccccc3c2C)CC1 [Cpd 29, N-(3-Methylbenzo[b]thiophen-2-yl)-N-(4-trifluoromethoxy-benzyl)-2-(4-acetylpiperazin-1-yl)ethylsulfonamide] | 101% | 7.92 |
| CCOC(=O)C1CCN(CCS(=O)(=O)N(Cc2ccc(OC(F)(F)F)cc2)c2sc3ccccc3c2C)CC1 [Cpd 41, N-(3-Methylbenzo[b]thiophen-2-yl)-N-(4-trifluoromethoxy-benzyl)-2-(4-carboethoxypiperidin-1-yl)ethylsulfonamide] | 99% | 7.80 |
| Cc1c(N(Cc2ccc(OC(F)(F)F)cc2)S(=O)(=O)CCN2CCNC(=O)CC2)sc2ccccc12 [Cpd 31, N-(3-Methylbenzo[b]thiophen-2-yl)-N-(4-trifluoromethoxy-benzyl)-2-(5-oxohomopiperazin-1-yl)ethylsulfonamide] | 99% | 7.57 |
| Cc1c(N(CCCCC(F)(F)F)S(=O)(=O)CCN(C)Cc2ccccc2)sc2ccccc12 [Cpd 79, N-(3-Methylbenzo[b]thiophen-2-yl)-N-(5,5,5-trifluoro-n-pent-1-yl)-2-(benzyl-methylamino)ethylsulfonamide] | 98% | 7.43 |
| CC(=O)N(CCS(=O)(=O)N(CCC1CC1)c1sc2ccccc2c1C)CC(C)C [Cpd 92, N-(3-Methylbenzo[b]thiophen-2-yl)-N-(2-cyclopropyl-ethyl)-2-(N-acetyl-isobutylamino)ethylsulfonamide] | 101% | 7.46 |
| CCC(=O)N(CCS(=O)(=O)N(CCCCC(F)(F)F)c1sc2ccccc2c1C)CC(C)C [Cpd 90, N-(3-Methylbenzo[b]thiophen-2-yl)-N-(5,5,5-trifluoro-n-pent-1-yl)-2-(N-propionoyl-isobutylamino)ethylsulfonamide] | 92% | 7.36 |
| CCC(=O)N(CCS(=O)(=O)N(CCC1CC1)c1sc2ccccc2c1C)CC(C)C [Cpd 93, N-(3-Methylbenzo[b]thiophen-2-yl)-N-(2-cyclopropyl-ethyl)-2-(N-propionoyl-isobutylamino)ethylsulfonamide] | 100% | 7.37 |
